Test results published in PubChem BioAssay AID330 (DTP/NCI, 2004).
Several values for one entry are separate records, joined by “and”; a condition that tells them apart may be missing. Equal entries are not always repeated. Toxic doses and inconclusive results are not listed. The calls were made as follows: active = survival T/C of 150% or more; inactive = T/C below 125% in these data.

Test system: P388 leukemia ip, CD2F1 mice, survival T/C
Assay: NCI In Vivo Anticancer Drug Screen. Data for tumor model P388 Leukemia (intraperitoneal) in CD2F1 (CDF1) mice
Settings: endpoint: median survival time, higher = longer survival
Procedure, shortened: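 Mice carrying the transplanted tumor received test compound or vehicle. Survival was recorded in each group, and the value is the treated-group measurement divided by that of the vehicle-treated control group.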

[1] = dose: 60.0 mg/kg/injection, schedule: Q01DX005 (ip), vehicle: saline
[2] = dose: 50.0 mg/kg/injection, schedule: Q01DX005 (ip), vehicle: saline with Tween-80
[3] = dose: 100.0 mg/kg/injection, schedule: Q01DX005 (ip), vehicle: saline with Tween-80
[4] = dose: 100.0 mg/kg/injection, schedule: Q01DX009 (ip), vehicle: saline with Tween-80

Measured: T/C

Cc1c2oc3c(C)ccc(C(=O)NC(C(=O)NC(C(=O)N(C)C)C(C)C)C(C)O)c3nc-2c(C(=O)NC(C(=O)NC(C(=O)N(C)C)C(C)C)C(C)O)c(N)c1=O (configuration not stated)
inactive: dose: 0.05 mg/kg/injection, schedule: Q01DX009 (ip), vehicle: water 101 % of control | dose: 0.1 mg/kg/injection, schedule: Q01DX009 (ip), vehicle: water 100 % of control | dose: 0.2 mg/kg/injection, schedule: Q01DX009 (ip), vehicle: water 100 % of control | dose: 0.4 mg/kg/injection, schedule: Q01DX009 (ip), vehicle: water 108 % of control | dose: 0.8 mg/kg/injection, schedule: Q01DX009 (ip), vehicle: water 110 % of control | dose: 1.6 mg/kg/injection, schedule: Q01DX009 (ip), vehicle: water 99 % of control and 106 % of control | dose: 3.2 mg/kg/injection, schedule: Q01DX009 (ip), vehicle: water 101 % of control | dose: 6.4 mg/kg/injection, schedule: Q01DX009 (ip), vehicle: water 101 % of control | dose: 12.8 mg/kg/injection, schedule: Q01DX009 (ip), vehicle: water 106 % of control

COC(=O)c1ccn2c1CCC2
inactive: dose: 25.0 mg/kg/injection, schedule: Q01DX009 (ip), vehicle: Klucel (hydroxypropylcellulose) (HPC) 91 % of control | dose: 50.0 mg/kg/injection, schedule: Q01DX009 (ip), vehicle: Klucel (hydroxypropylcellulose) (HPC) 91 % of control | dose: 100.0 mg/kg/injection, schedule: Q01DX009 (ip), vehicle: Klucel (hydroxypropylcellulose) (HPC) 95 % of control | dose: 200.0 mg/kg/injection, schedule: Q01DX009 (ip), vehicle: Klucel (hydroxypropylcellulose) (HPC) 98 % of control | dose: 400.0 mg/kg/injection, schedule: Q01DX009 (ip), vehicle: Klucel (hydroxypropylcellulose) (HPC) 91 % of control

CC(=O)OC(C(Br)CBr)C(OC(C)=O)C(Br)CBr (configuration not stated)
inactive: dose: 7.5 mg/kg/injection, schedule: Q01DX009 (ip), vehicle: saline 104 % of control | dose: 15.0 mg/kg/injection, schedule: Q01DX009 (ip), vehicle: saline 110 % of control | dose: 30.0 mg/kg/injection, schedule: Q01DX009 (ip), vehicle: saline 106 % of control

CN(C)CCSc1nc2ccccc2s1
inactive: [1] 101 % of control | dose: 120.0 mg/kg/injection, schedule: Q01DX005 (ip), vehicle: saline 104 % of control

COc1ccc2c3c(c4ccccc4c2c1)C(=O)OC3=O
inactive: dose: 25.0 mg/kg/injection, schedule: Q01DX005 (ip), vehicle: saline with Tween-80 87 % of control | [2] 87 % of control | [3] 109 % of control

CCOC(=O)Nc1ccc2c(c1[N+](=O)[O-])c1cc([N+](=O)[O-])cc([N+](=O)[O-])c1n2CC
inactive: [2] 98 % of control | [3] 90 % of control | dose: 200.0 mg/kg/injection, schedule: Q01DX005 (ip), vehicle: saline with Tween-80 86 % of control

CC(N)C(O)c1ccc(O)cc1 (configuration not stated)
inactive: dose: 50.0 mg/kg/injection, schedule: Q01DX009 (ip), vehicle: saline 102 % of control and 108 % of control | dose: 100.0 mg/kg/injection, schedule: Q01DX009 (ip), vehicle: saline 101 % of control | dose: 200.0 mg/kg/injection, schedule: Q01DX009 (ip), vehicle: saline 101 % of control and 108 % of control | dose: 400.0 mg/kg/injection, schedule: Q01DX009 (ip), vehicle: saline 87 % of control and 89 % of control

CCOc1cc2cc(CCC#N)c(C)cc2cn1
inactive: dose: 12.5 mg/kg/injection, schedule: Q01DX009 (ip), vehicle: distilled water + Tween-80 93 % of control | dose: 25.0 mg/kg/injection, schedule: Q01DX009 (ip), vehicle: distilled water + Tween-80 87 % of control | dose: 50.0 mg/kg/injection, schedule: Q01DX009 (ip), vehicle: distilled water + Tween-80 87 % of control

CC(=O)[C@H]1CC[C@H]2[C@@H]3C[C@H](C)C4=CC(=O)CC[C@]4(C)[C@H]3C(=O)C[C@]12C
inactive: [4] 100 % of control | dose: 200.0 mg/kg/injection, schedule: Q01DX009 (ip), vehicle: saline with Tween-80 109 % of control | dose: 400.0 mg/kg/injection, schedule: Q01DX009 (ip), vehicle: saline with Tween-80 104 % of control

C1=[N+]2CCCC2Cc2ccc3ccccc3c21 (configuration not stated)
inactive: dose: 12.5 mg/kg/injection, schedule: Q04DX003 (ip), vehicle: saline 100 % of control | dose: 25.0 mg/kg/injection, schedule: Q04DX003 (ip), vehicle: saline 103 % of control | dose: 50.0 mg/kg/injection, schedule: Q04DX003 (ip), vehicle: saline 100 % of control

CCOC(=O)C(C(=O)OCC)[N+](=O)[O-]
inactive: dose: 50.0 mg/kg/injection, schedule: Q01DX009 (ip), vehicle: saline with Tween-80 100 % of control | [4] 93 % of control

Clc1[nH]nc2ccccc12
inactive: dose: 6.25 mg/kg/injection, schedule: Q01DX009 (ip), vehicle: saline with Tween-80 95 % of control | dose: 12.5 mg/kg/injection, schedule: Q01DX009 (ip), vehicle: saline with Tween-80 100 % of control | dose: 12.5 mg/kg/injection, schedule: Q04DX003 (ip), vehicle: saline with Tween-80 100 % of control | dose: 25.0 mg/kg/injection, schedule: Q01DX009 (ip), vehicle: saline with Tween-80 86 % of control | dose: 25.0 mg/kg/injection, schedule: Q04DX003 (ip), vehicle: saline with Tween-80 100 % of control | dose: 50.0 mg/kg/injection, schedule: Q04DX003 (ip), vehicle: saline with Tween-80 100 % of control

C[C@H](N)C(=O)N[C@@H]1[C@H]2C(=C(O)C[C@@H](O)[C@@H]2O)C(=O)O[C@]1(C)C(Cl)Cl
active: dose: 0.78 mg/kg/injection, schedule: Q01DX009 (ip), vehicle: Klucel (hydroxypropylcellulose) (HPC) 150 % of control and 167 % of control | dose: 1.56 mg/kg/injection, schedule: Q01DX009 (ip), vehicle: Klucel (hydroxypropylcellulose) (HPC) 161 % of control and 187 % of control and 205 % of control
inactive: dose: 3.12 mg/kg/injection, schedule: Q01DX009 (ip), vehicle: Klucel (hydroxypropylcellulose) (HPC) 117 % of control and 118 % of control

COc1ccc2c(c1)[C@@]13CCCC[C@H]1[C@@H](C2)[N+](CC1CC1)=CC3=NO
inactive: dose: 50.0 mg/kg/injection, schedule: Q01DX005 (ip), vehicle: Klucel (hydroxypropylcellulose) (HPC) 111 % of control | dose: 100.0 mg/kg/injection, schedule: Q01DX005 (ip), vehicle: Klucel (hydroxypropylcellulose) (HPC) 102 % of control | dose: 200.0 mg/kg/injection, schedule: Q01DX005 (ip), vehicle: Klucel (hydroxypropylcellulose) (HPC) 105 % of control

COc1cccc2c1C(=O)c1c(O)c3c(c(O)c1C2=O)C[C@@](O)(C(=O)COC(=O)c1cccnc1)C[C@@H]3OC1CC(N)C(O)C(C)O1 (some centres not stated)
active: dose: 0.5 mg/kg/injection, schedule: Q01DX009 (ip), vehicle: water 163 % of control | dose: 1.0 mg/kg/injection, schedule: Q01DX009 (ip), vehicle: water 167 % of control | dose: 1.32 mg/kg/injection, schedule: Q01DX009 (ip), vehicle: saline sonified 209 % of control | dose: 2.0 mg/kg/injection, schedule: Q01DX009 (ip), vehicle: saline sonified 209 % of control | dose: 2.0 mg/kg/injection, schedule: Q01DX009 (ip), vehicle: water 229 % of control | dose: 8.0 mg/kg/injection, schedule: Q04DX003 (ip), vehicle: water 172 % of control | dose: 16.0 mg/kg/injection, schedule: Q04DX003 (ip), vehicle: water 166 % of control
inactive: dose: 0.25 mg/kg/injection, schedule: Q04DX003 (ip), vehicle: saline 114 % of control | dose: 0.5 mg/kg/injection, schedule: Q01DX009 (ip), vehicle: saline with Tween-80 118 % of control | dose: 0.5 mg/kg/injection, schedule: Q04DX003 (ip), vehicle: saline 113 % of control | dose: 0.5 mg/kg/injection, schedule: Q04DX003 (ip), vehicle: water 109 % of control | dose: 1.0 mg/kg/injection, schedule: Q01DX009 (ip), vehicle: saline with Tween-80 122 % of control | dose: 1.0 mg/kg/injection, schedule: Q04DX003 (ip), vehicle: saline 116 % of control and 122 % of control | dose: 1.0 mg/kg/injection, schedule: Q04DX003 (ip), vehicle: water 119 % of control | dose: 2.0 mg/kg/injection, schedule: Q04DX003 (ip), vehicle: saline 108 % of control | dose: 2.0 mg/kg/injection, schedule: Q04DX003 (ip), vehicle: water 119 % of control | dose: 3.0 mg/kg/injection, schedule: Q01DX009 (ip), vehicle: saline sonified 104 % of control | dose: 4.0 mg/kg/injection, schedule: Q01DX009 (ip), vehicle: water 102 % of control | dose: 4.0 mg/kg/injection, schedule: Q04DX003 (ip), vehicle: saline 113 % of control | dose: 4.0 mg/kg/injection, schedule: Q04DX003 (ip), vehicle: water 119 % of control | dose: 8.0 mg/kg/injection, schedule: Q04DX003 (ip), vehicle: saline 118 % of control | dose: 64.0 mg/kg/injection, schedule: Q04DX003 (ip), vehicle: saline 95 % of control

COC1C(=O)OC(=O)C1OC (configuration not stated)
inactive: dose: 15.0 mg/kg/injection, schedule: Q01DX005 (ip), vehicle: saline 109 % of control and 117 % of control | dose: 30.0 mg/kg/injection, schedule: Q01DX005 (ip), vehicle: saline 102 % of control and 117 % of control | [1] 100 % of control and 109 % of control and 90 % of control
